Data reported in PMC7688903 (Frontiers in Microbiology, 2020).
≈ marks a conversion by molar mass, not a printed value. Where a SMILES comes first, the peptide text is derived from it. [ ]: non-standard residue; d: D form. 2Thi = N[C@@H](Cc1cccs1)C(=O)O; Aib = CC(C)(N)C(=O)O

How the values were obtained:
RAW 264.7 cells = assay: Cell viability assay (MTT); assay type: cell-based, mouse; details: 1–128 μM peptide in DMEM with 4% FBS, 42 h, 595 nm, triplicate
Summary of the method: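 RAW 264.7 cells (1 × 10^4/well, DMEM + 10% FBS) grown overnight to 80% confluency, then exposed to peptides at 1–128 μM in DMEM with 4% FBS for 42 h at 37 °C. MTT read at 595 nm; viability relative to medium-only controls, triplicate, IC50 as 50% loss of viability.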

[1] = tested on: carbapenem-resistant P. aeruginosa (CRPA) SIPI-012; assay type: cell-based, Pseudomonas aeruginosa; details: carbapenem-resistant (CRPA) SIPI-012, 20 h
Summary of the method: (§1)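 Inocula were set to 0.5 McFarland and diluted to ~5 × 10^5 CFU/mL (bacteria, MH broth) or 0.5 × 10^3 to 2.5 × 10^3 CFU/mL (yeast, RPMI 1640). Peptide twofold dilutions were added, plates incubated 20 h at 37°C or 48 h at 35°C, then scored by eye.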

P. aeruginosa ATCC 27853 = assay type: cell-based, Pseudomonas aeruginosa; details: ATCC 27853, 20 h
Summary of the method: as §1

BALB/c mice = assay: In vivo acute toxicity, single injection; parameters: species or system mouse; details: monitored 24 h
Protocol: Six-week-old mice (approximate weight: 18–20 g, SFP grade) were bred and maintained under specific pathogen-free conditions on a 12 h light/dark cycle. The peptides were dissolved in PBS (pH 7.4) and three mice were used for each dose. As a control, colistin was administered in a similar manner. The mice were monitored for 24 h and mice were weighed at the end of the experiment. The procedure was evaluated and approved by the Ethical Committee of Experimental Animals of the Chia Tai Tianqing Pharmaceutical Group in August 2019.
As summarized in Figure 6, a toxicity score was assigned as follows: no abnormalities = without signs; mild depression, poor motility, purple-black tail, and recovery in 1 h = mild signs; serious depression and poor motility even under stimulation = manifest signs; sudden death within 10 min = died of toxic effects.

human erythrocytes = assay: Hemolytic activity assay; assay type: cell-based; details: human RBC in PB, 37°C, 1 h, OD420, total lysis control 0.1% SDS, three technical replicates
Summary of the method: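 Washed RBCs from a healthy volunteer were incubated with peptides at 32–128 μM for 1 h at 37°C in PB. Hemoglobin release into the supernatant was read as OD420 against total lysis with 0.1% SDS, in three technical replicates.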

E. coli ATCC 25922 = assay type: cell-based, Escherichia coli; details: ATCC 25922, 20 h
Summary of the method: as §1

S. aureus ATCC 25923 = assay: microbe, parasite or virus in culture; assay type: cell-based, Staphylococcus aureus; details: ATCC 25923, 20 h
Summary of the method: as §1

[2] = tested on: carbapenem-resistant A. baumannii (CRAB) SIPI-025; assay type: cell-based, Acinetobacter baumannii; details: carbapenem-resistant (CRAB) SIPI-025, 20 h
Summary of the method: as §1

A. baumannii ATCC 19606 = assay type: cell-based, Acinetobacter baumannii; details: ATCC 19606, 20 h
Summary of the method: as §1

C. albicans ATCC 10231 = assay: microbe, parasite or virus in culture; assay type: cell-based, Candida albicans; details: ATCC 10231, 48 h
Summary of the method: as §1

CC(C)C[C@H](NC(=O)[C@H](Cc1ccc(O)cc1)NC(=O)[C@H](CCCCN)NC(=O)[C@H](CC(C)C)NC(=O)[C@H](CC(C)C)NC(=O)[C@H](CCCCN)NC(=O)[C@H](CCCCN)NC(=O)[C@H](Cc1ccccc1)NC(=O)[C@H](CC(C)C)NC(=O)[C@H](CCCNC(=N)N)NC(=O)C(C)(C)N)C(=O)N[C@@H](CCCNC(=N)N)C(=O)N[C@@H](CCCCN)C(=O)N[C@@H](Cc1cccs1)C(N)=O [UP09] (H-[Aib]RLFKKLLKYLRK[2Thi]-NH2; N-terminus assumed)
IC50 (RAW 264.7 cells): 26.2 ± 1.8 µM | MIC [1]: 4 µg/mL (≈ 2.17 µM) | MIC (P. aeruginosa ATCC 27853): 2 µg/mL (≈ 1.08 µM) | signs of toxicity after intravenous injection (BALB/c mice; single i.v. dose, all tested doses (5, 10, 20 mg/kg), three mice per dose): Mild depression and purple-black tails | Hemolysis rate (%) (human erythrocytes; 64 μM): 55.99 ± 3.75 % | Hemolysis rate (%) (human erythrocytes; 128 μM): 95.99 ± 2.10 % | MIC (E. coli ATCC 25922): 2 µg/mL (≈ 1.08 µM) | MIC (S. aureus ATCC 25923): 1 µg/mL (≈ 0.542 µM) | MIC [2]: 2 µg/mL (≈ 1.08 µM) | MIC (A. baumannii ATCC 19606): 2 µg/mL (≈ 1.08 µM) | MIC (C. albicans ATCC 10231): 4 µg/mL (≈ 2.17 µM)

CC(C)C[C@H](NC(=O)[C@H](CC(C)C)NC(=O)[C@@H](CCCCN)NC(=O)[C@@H](CCCCN)NC(=O)[C@H](Cc1ccccc1)NC(=O)[C@H](CC(C)C)NC(=O)[C@@H](CCCNC(=N)N)NC(=O)[C@H](N)CCCCN)C(=O)N[C@H](CCCCN)C(=O)N[C@@H](Cc1ccc(O)cc1)C(=O)N[C@@H](CC(C)C)C(=O)N[C@H](CCCNC(=N)N)C(=O)N[C@H](CCCCN)C(=O)N[C@@H](Cc1ccccc1)C(N)=O [DP06] (H-[dK][dR]LF[dK][dK]LL[dK]YL[dR][dK]F-NH2)
IC50 (RAW 264.7 cells): 48.8 ± 6.97 µM | MIC [1]: 8 µg/mL (≈ 4.25 µM) | MIC (P. aeruginosa ATCC 27853): 1 µg/mL (≈ 0.532 µM) | signs of toxicity after intravenous injection (BALB/c mice; single i.v. dose 5 mg/kg, three mice): sudden death within 1 min of injection | signs of toxicity after intravenous injection (BALB/c mice; single i.v. dose 10 mg/kg, three mice): sudden death within 1 min of injection | Hemolysis rate (%) (human erythrocytes; 64 μM): 37.14 ± 2.73% | Hemolysis rate (%) (human erythrocytes; 128 μM): 59.99 ± 2.41% | MIC (E. coli ATCC 25922): 1 µg/mL (≈ 0.532 µM) | MIC (S. aureus ATCC 25923): 0.5 µg/mL (≈ 0.266 µM) | MIC [2]: 2 µg/mL (≈ 1.06 µM) | MIC (A. baumannii ATCC 19606): 1 µg/mL (≈ 0.532 µM) | MIC (C. albicans ATCC 10231): 2 µg/mL (≈ 1.06 µM)
